The test addresses Histone deacetylase 1 (Homo sapiens, UniProt Q13547). Nature of the test: Enzyme Assay: Compounds for testing were diluted in DMSO to 50 fold the final concentration and a ten point three fold dilution series was made. The compounds were diluted in assay buffer (50 mM HEPES, pH 7.4, 100 mM KCl, 0.001% Tween-20, 0.05% BSA, 20 μM tris(2-carboxyethyl)phosphine) to 6 fold their final concentration. The HDAC enzymes (purchased from BPS Biosciences) were diluted to 1.5 fold their final concentration in assay buffer and pre-incubated with the compounds for 24 hours prior to addition of the substrate.
Sequence of Histone deacetylase 1 (Q13547 whole entry): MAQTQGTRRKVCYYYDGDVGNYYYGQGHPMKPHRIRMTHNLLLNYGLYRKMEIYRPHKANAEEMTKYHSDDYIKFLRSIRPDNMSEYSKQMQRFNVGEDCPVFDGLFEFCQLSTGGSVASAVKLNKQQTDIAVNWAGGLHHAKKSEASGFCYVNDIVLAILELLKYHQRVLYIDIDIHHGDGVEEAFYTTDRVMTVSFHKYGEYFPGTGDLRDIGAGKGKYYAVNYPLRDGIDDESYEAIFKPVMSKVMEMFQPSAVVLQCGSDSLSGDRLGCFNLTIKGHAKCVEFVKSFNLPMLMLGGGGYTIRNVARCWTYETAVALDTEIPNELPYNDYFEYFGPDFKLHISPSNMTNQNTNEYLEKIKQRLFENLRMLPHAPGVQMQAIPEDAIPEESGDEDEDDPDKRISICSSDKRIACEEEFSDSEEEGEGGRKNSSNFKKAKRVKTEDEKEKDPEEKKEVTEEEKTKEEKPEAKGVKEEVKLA
Take `CN(c1ncc(C(=O)Nc2cc(-c3ccccc3)ccc2N)cn1)C1CCN(C(=O)Cc2c[nH]c3ccccc23)CC1`: half-maximal inhibition (IC50) was put at 48 nM.
Take `Nc1ccc(-c2ccccc2)cc1NC(=O)c1cnc(NC2CCN(C(=O)Cc3c[nH]c4ccccc34)CC2)nc1`: the IC50 (as a rule, the concentration at which inhibition is half-maximal) was 22 nM.
Next, `CC1(Nc2ncc(C(=O)Nc3cc(-c4ccccc4)ccc3N)cn2)CCNCC1`: 14 nM.

These data come from ChEMBL document CHEMBL5726496, “Piperidine derivatives as HDAC1/2 inhibitors” (2017).
